This passage reports SC1.5 average results from patent publication US20110021570A1, “PYRIDONE GLUCOKINASE ACTIVATORS” (priority 2009, published 2011).

SMILES strings stand for the structures. Where only a bound is given, the exact number is not on record here.

The target in this experiment is T1, Recombinant human liver GK1 (GST-GK) (Homo sapiens, UniProt P35557).
T1 construct: made in house; host or cells: E. coli
T1 sequence (P35557 1-466 isoform P35557-2): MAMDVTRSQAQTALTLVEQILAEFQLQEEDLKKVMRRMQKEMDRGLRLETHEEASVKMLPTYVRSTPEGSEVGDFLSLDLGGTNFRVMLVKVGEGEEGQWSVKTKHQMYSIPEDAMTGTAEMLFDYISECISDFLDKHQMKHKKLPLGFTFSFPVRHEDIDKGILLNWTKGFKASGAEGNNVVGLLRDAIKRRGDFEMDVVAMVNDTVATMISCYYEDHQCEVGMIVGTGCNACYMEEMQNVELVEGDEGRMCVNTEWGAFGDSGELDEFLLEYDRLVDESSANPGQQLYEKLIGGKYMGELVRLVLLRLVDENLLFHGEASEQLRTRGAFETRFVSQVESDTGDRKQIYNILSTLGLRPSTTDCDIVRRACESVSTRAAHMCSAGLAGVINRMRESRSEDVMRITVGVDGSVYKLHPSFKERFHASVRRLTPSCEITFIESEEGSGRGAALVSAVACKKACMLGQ
In words: Glucokinase in vitro assay (G6PDH-coupled, NADH generation). In kind it is biochemical. Particulars: concentration of activator that produced a 50% increase in the activity of GK; 5 mM D-glucose, 30° C., pH 7.1. Here is the method:
Glucokinase In Vitro Assay Protocol: Glucokinase (GK) was assayed by coupling the production of glucose-6-phosphate to the generation of NADH with glucose-6-phosphate dehydrogenase (G6PDH, 0.75-1 kunits/mg; Boehringer Mannheim, Indianapolis, Ind.) from Leuconostoc mesenteroides as the coupling enzyme:
Recombinant human liver GK1 was expressed in E. coli as a glutathione S-transferase fusion protein (GST-GK) [Liang et al, 1995] and was purified by chromatography over a glutathione-Sepharose 4B affinity column using the procedure provided by the manufacturer (Amersham Pharmacia Biotech, Piscataway, N.J.).
The assay was conducted at 30° C. in a flat bottom 96-well tissue culture plate from Costar (Cambridge, Mass.) with a final incubation volume of 120 μL. The incubation reaction contained the following: 25 mM Hepes buffer (pH 7.1), 25 mM KCl, 5 mM D-glucose, 1 mM ATP, 1.8 mM NAD, 2 mM MgCl2, 1 μM sorbitol-6-phosphate, 1 mM dithiothreitol, test drug or 10% DMSO, ˜7 units/ml G6PDH, and GK (see below). All organic reagents were >98% pure and were from Boehringer Mannheim with the exceptions of D-glucose and Hepes which were from Sigma Chemical Co, St Louis, Mo. Test compounds were dissolved in DMSO and were added to the incubation reaction minus GST-GK in a volume of 12 μL to yield a final DMSO concentration of 10%. This mix was pre-incubated in the temperature controlled chamber of a SPECTRAmax 250 microplate spectrophotometer (Molecular Devices Corporation, Sunnyvale, Calif.) for 10 minutes to allow temperature equilibrium and then the reaction was started by the addition of […].
After addition of enzyme, the increase in optical density (OD) at 340 nm was monitored spectrophotometrically to determine the rate of change (OD340 per min). The GK activity (0D340/min) in control wells (10% DMSO minus GK activators) was compared with the activity in wells containing test GK activators, and the concentration of activator that produced a 50% increase in the activity of GK, i.e., the SC1.5, was calculated. The table below provides the in vitro glucokinase activity for the compounds in the Examples: […]
As to `CC(C)CC(C(=O)Nc1ccn(C)n1)n1ccc(Oc2cccc(F)c2F)cc1=O` (stereo not drawn) [Example 1, 2-[4-(2,3-Difluoro-phenoxy)-2-oxo-2H-pyridin-1-yl]-4-methyl-pentanoic acid (1-methyl-1H-pyrazol-3-yl)-amide], the SC1.5 average worked out at 10.4 µM.

Consider `CC(C)CC(C(=O)Nc1ccn(C)n1)n1ccc(Oc2cccc(F)c2)cc1=O` (stereo not drawn) [Example 2, 2-[4-(3-Fluoro-phenoxy)-2-oxo-2H-pyridin-1-yl]-4-methyl-pentanoic acid (1-methyl-1H-pyrazol-3-yl)-amide], for which the SC1.5 average is greater than 30 µM.

With `CC(C)CC(C(=O)Nc1ccn(C)n1)n1ccc(Oc2ccccc2)cc1=O` (stereo not drawn) [Example 3, 4-Methyl-2-(2-oxo-4-phenoxy-2H-pyridin-1-yl)-pentanoic acid (1-methyl-1H-pyrazol-3-yl)-amide], the SC1.5 average amounted to 21.7 µM.

`Cc1ccccc1Oc1ccn(C(CC(C)C)C(=O)Nc2ccn(C)n2)c(=O)c1` (stereo not drawn) [Example 4, 4-Methyl-2-(2-oxo-4-o-tolyloxy-2H-pyridin-1-yl)-pentanoic acid (1-methyl-1H-pyrazol-3-yl)-amide]: the SC1.5 average came to 7.3 µM.

Turning to `CC(C)CC(C(=O)Nc1ccn(C)n1)n1ccc(Oc2c(F)cccc2F)cc1=O` (stereo not drawn) [Example 5, 2-[4-(2,6-Difluoro-phenoxy)-2-oxo-2H-pyridin-1-yl]-4-methyl-pentanoic acid (1-methyl-1H-pyrazol-3-yl)-amide], the SC1.5 average worked out at 4.2 µM.

`CC(C)CC(C(=O)Nc1ccn(C)n1)n1ccc(Oc2ccccc2C(F)(F)F)cc1=O` (stereo not drawn) [Example 6, 4-Methyl-2-[2-oxo-4-(2-trifluoromethyl-phenoxy)-2H-pyridin-1-yl]-pentanoic acid (1-methyl-1H-pyrazol-3-yl)-amide]: the SC1.5 average was determined as 11.4 µM.

In the case of `CC(C)CC(C(=O)Nc1ccn(C)n1)n1ccc(Oc2ccc(F)cc2)cc1=O` (stereo not drawn) [Example 7, 2-[4-(4-Fluoro-phenoxy)-2-oxo-2H-pyridin-1-yl]-4-methyl-pentanoic acid (1-methyl-1H-pyrazol-3-yl)-amide], the SC1.5 average was greater than 30 µM.

Consider `CC(C)CC(C(=O)Nc1ccn(C)n1)n1ccc(Oc2cccnc2)cc1=O` (stereo not drawn) [Example 8, 4-Methyl-2-[2-oxo-4-(pyridin-3-yloxy)-2H-pyridin-1-yl]-pentanoic acid (1-methyl-1H-pyrazol-3-yl)-amide], for which the SC1.5 average came to 26.1 µM.

In the case of `CC(C)CC(C(=O)Nc1ccn(C)n1)n1ccc(Oc2ccccc2-c2ccccc2)cc1=O` (stereo not drawn) [Example 9, 2-[4-(Biphenyl-2-yloxy)-2-oxo-2H-pyridin-1-yl]-4-methyl-pentanoic acid (1-methyl-1H-pyrazol-3-yl)-amide], the SC1.5 average was greater than 30 µM.

As to `CC(C)CC(C(=O)Nc1ccn(C)n1)n1ccc(Oc2ccccc2C(C)C)cc1=O` (stereo not drawn) [Example 10, 2-[4-(2-Isopropyl-phenoxy)-2-oxo-2H-pyridin-1-yl]-4-methyl-pentanoic acid (1-methyl-1H-pyrazol-3-yl)-amide], the SC1.5 average came to 4.5 µM.

Take `CC(C)CC(C(=O)Nc1ccn(C)n1)n1ccc(Oc2ccc(F)cc2F)cc1=O` (stereo not drawn) [Example 11, 2-[4-(2,4-Difluoro-phenoxy)-2-oxo-2H-pyridin-1-yl]-4-methyl-pentanoic acid (1-methyl-1H-pyrazol-3-yl)-amide]: the SC1.5 average was 22.5 µM.

For the molecule `Cc1c(Cl)cccc1Oc1ccn(C(CC(C)C)C(=O)Nc2ccn(C)n2)c(=O)c1` (stereo not drawn) [Example 12, 2-[4-(3-Chloro-2-methyl-phenoxy)-2-oxo-2H-pyridin-1-yl]-4-methyl-pentanoic acid (1-methyl-1H-pyrazol-3-yl)-amide], the SC1.5 average is 9.0 µM.

For the molecule `CC(C)CC(C(=O)Nc1ccn(C)n1)n1ccc(Oc2cc(F)ccc2F)cc1=O` (stereo not drawn) [Example 13, 2-[4-(2,5-Difluoro-phenoxy)-2-oxo-2H-pyridin-1-yl]-4-methyl-pentanoic acid (1-methyl-1H-pyrazol-3-yl)-amide], the SC1.5 average is 16.6 µM.

Consider `CC(C)CC(C(=O)Nc1ccn(C)n1)n1ccc(Oc2cccc3ccccc23)cc1=O` (stereo not drawn) [Example 14, 4-Methyl-2-[4-(naphthalen-1-yloxy)-2-oxo-2H-pyridin-1-yl]-pentanoic acid (1-methyl-1H-pyrazol-3-yl)-amide], for which the SC1.5 average came to 2.6 µM.

For the molecule `CC(C)CC(C(=O)Nc1ccn(C)n1)n1ccc(Oc2ccccc2Cl)cc1=O` (stereo not drawn) [Example 15, 2-[4-(2-Chloro-phenoxy)-2-oxo-2H-pyridin-1-yl]-4-methyl-pentanoic acid (1-methyl-1H-pyrazol-3-yl)-amide], the SC1.5 average is 6.2 µM.

For the molecule `CC(C)CC(C(=O)Nc1ccn(C)n1)n1ccc(Oc2ccccc2OC(F)(F)F)cc1=O` (stereo not drawn) [Example 16, 4-Methyl-2-[2-oxo-4-(2-trifluoromethoxy-phenoxy)-2H-pyridin-1-yl]pentanoic acid (1-methyl-1H-pyrazol-3-yl)-amide], the SC1.5 average was 8.8 µM.

For the molecule `CC(C)CC(C(=O)Nc1ccn(C)n1)n1ccc(Oc2ccccc2F)cc1=O` (stereo not drawn) [Example 17, 2-[4-(2-Fluoro-phenoxy)-2-oxo-2H-pyridin-1-yl]-4-methyl-pentanoic acid (1-methyl-1H-pyrazol-3-yl)-amide], the SC1.5 average is 8.4 µM.

As for `COc1ccccc1Oc1ccn(C(CC(C)C)C(=O)Nc2ccn(C)n2)c(=O)c1` (stereo not drawn) [Example 18, 2-[4-(2-Methoxy-phenoxy)-2-oxo-2H-pyridin-1-yl]-4-methyl-pentanoic acid (1-methyl-1H-pyrazol-3-yl)-amide], the SC1.5 average turned out to be 8.1 µM.
